Test results published in patent US4731377A, “Antitumor cyclic peroxides” (Harbor Branch Oceanographic Institute, Inc., priority 1986, dated 1988).
≈ marks a conversion by molar mass, not a printed value.

Test system: P-388 mouse leukemia cells
Experiment: P388 mouse leukemia cell cytotoxicity assay (24-well plate screening / tube assay)
Assay type: cell-based
Conditions: for concentration inhibiting cell growth relative to the concentration required for inhibition by chondrillin (composition 1): 50% inhibition stated for II/2 and III/3, P388 mouse leukemia cells; for IC50: P388, P-388 mouse leukemia cells, 48 hours incubation, 5% CO2, read-out: P388 IC50, Inhibiting concentration 50% of cell growth; for antitumor activity ranking among the compositions tested: Table 2, P388, result in words; for cytotoxic in vitro against P-388 murine leukemia cells: result in words
Text: The following assay method was utilized to illustrate the antitumor effectiveness of the compositions of Formulae II - VI corresponding to compositions 2-5 of the examples. Data is also provided for the chondrillin composition (1) which has also been isolated according to the process of the invention.
388 MOUSE LEUKEMIA CELL CYTOXICITY ASSAY 24-WELL PLATE SCREENING ASSAY AND TUBE ASSAY PROTOCOL
Media--Dulbeccos with glucose and pyruvate (Biologos, Inc) with 10% horse serum, (Biologos, Inc) and 1.0 ug/ml gentamicin (Gibco).
Cells - P-388 mouse leukemia cells (American Type Culture Collection) in media at a concentration of 5×10^4 W cells/ml Sterile 24-well culture plates (Nunc) for screening or 12×75 mm glass culture tubes (Becton-Dickinson) for tube assay. Microdispenser with 1 to 5 ul increments (Drummond Scientific Co. Broomall PA).
Finnpipette with 5 to 50 μl increments and Finnpipette with 50 to 200 μl increments.
1. A sample of the composition to be assayed is added to each well or tube in an amount of from 200 ug/ml and 100 ug/ml for screening. For DDC of known active compounds use log concentrations from 100 ug/ml to 0.01 ug/ml for range-finding assay; when range has been determined, use five concentrations between highest and lowest active concentrations.
2. Add 2.0 ml of 5×10^4 cell suspension in media to each well or tube. Tubes are loosely covered with parafilm.
3 Incubate in 5% CO2 incubator 48 hours.
4. Visually read plates with inverted microscope, comparing with solvent control. Assign activity as follows:
Repeat all positive samples using tube assay.
5. For Tube assays--Mix tube well on vortex and remove 0.5 ml aliquot and add to 9.5 ml of diluent fluid (Isoton - Coulter) in Accuvette (Coulter) and mix well by inversion immediately before counting, taking care not to produce excessive bubbles. Count on Coulter Counter (Counter is set to count 0.5 ml of the solution; therefore counts may be converted to cell/ml in original assay tube by multiplying count by 40.
Positive control--Vinblastine or Vincristine in aqueous solution.
Always run a solvent control in duplicate in the last two wells of each plate or four tubes for each rack of 72 or less tubes. Also run four wells or tubes with media and cells only per run of plates or tubes. When using volumes of aqueous solutions greater than 200 μl, dry sample and bring up to desired concentration in media.
Compositions 1-5 of formulae I/1; II/2; III/3; IV/4; and V/5 are cytotoxic in vitro against P-388 murine leukemia cells.

Structure (SMILES) | concentration inhibiting cell growth relative to the concentration required for inhibition by chondrillin (composition 1) | IC50 | antitumor activity ranking among the compositions tested | cytotoxic in vitro against P-388 murine leukemia cells
CC=CC=CCCCCCCC[C@]1(OC)C=C[C@@H](CC(=O)OC)OO1 (relative stereo) [Composition II/2] | 1% | 0.05 µg/mL (≈ 0.142 µM) | greatest antitumor activity of the compositions tested | cytotoxic
CCCCCCCCCCCC[C@]1(OC)C=C[C@@H](CC(=O)OC)OO1 (relative stereo) [Composition III/3] | 1% | 0.05 µg/mL (≈ 0.14 µM) | greatest antitumor activity of the compositions tested | cytotoxic
CC=CC=CCCCCCCCCC[C@]1(OC)C=C[C@@H](CC(=O)OC)OO1 (relative stereo) [Composition IV/4] | 2% | 0.1 µg/mL (≈ 0.263 µM) |  | cytotoxic
CC=CCCCCCCCCC[C@]1(OC)C=C[C@@H](CC(=O)OC)OO1 (relative stereo) [Composition V/5] | 2% | 0.1 µg/mL (≈ 0.282 µM) |  | cytotoxic
CCCCCCCCCCCCCCCCC1(OC)C=CC(CC(=O)OC)OO1 (stereo not shown) [Composition I/1, chondrillin, reference compound] |  | 5 µg/mL (≈ 12.1 µM) |  | cytotoxic
